Reference: patent publication US12180192B2, “Modulators of THR-β and methods of use thereof” (ALIGOS THERAPEUTICS, INC., priority 2019, dated 2024)

Experiments:
THR alpha = target: T1, THR alpha (Homo sapiens, UniProt P10827); assay: HEK293T THR alpha/RXR luciferase reporter assay (Assay 2); format: cell-based; details: Assay 2; for Emax: HEK-293T, Table 5, THRα, read-out: Activity category Assay 2 THRα (Emax); for EC50: Table 4, THR-alpha, read-out: Activity category Assay 2 (EC50, THR-alpha agonist activity)
T1 construct: expressed in transfected cells; host or cells: HEK293T (ATCC CRL-3216)
T1 sequence (P10827 1-410 isoform P10827-2): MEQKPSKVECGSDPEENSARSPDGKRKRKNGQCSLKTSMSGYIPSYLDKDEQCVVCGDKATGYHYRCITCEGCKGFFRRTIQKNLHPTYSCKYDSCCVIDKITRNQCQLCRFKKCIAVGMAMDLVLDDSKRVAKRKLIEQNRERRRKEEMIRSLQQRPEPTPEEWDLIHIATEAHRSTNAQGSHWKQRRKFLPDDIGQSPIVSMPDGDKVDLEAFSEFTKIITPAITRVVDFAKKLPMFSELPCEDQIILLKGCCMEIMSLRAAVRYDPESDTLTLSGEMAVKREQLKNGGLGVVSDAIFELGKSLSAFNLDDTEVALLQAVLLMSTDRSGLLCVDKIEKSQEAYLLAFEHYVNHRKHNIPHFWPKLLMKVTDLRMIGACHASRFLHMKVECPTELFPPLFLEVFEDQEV
T1 sequence (P19793 1-462 partner): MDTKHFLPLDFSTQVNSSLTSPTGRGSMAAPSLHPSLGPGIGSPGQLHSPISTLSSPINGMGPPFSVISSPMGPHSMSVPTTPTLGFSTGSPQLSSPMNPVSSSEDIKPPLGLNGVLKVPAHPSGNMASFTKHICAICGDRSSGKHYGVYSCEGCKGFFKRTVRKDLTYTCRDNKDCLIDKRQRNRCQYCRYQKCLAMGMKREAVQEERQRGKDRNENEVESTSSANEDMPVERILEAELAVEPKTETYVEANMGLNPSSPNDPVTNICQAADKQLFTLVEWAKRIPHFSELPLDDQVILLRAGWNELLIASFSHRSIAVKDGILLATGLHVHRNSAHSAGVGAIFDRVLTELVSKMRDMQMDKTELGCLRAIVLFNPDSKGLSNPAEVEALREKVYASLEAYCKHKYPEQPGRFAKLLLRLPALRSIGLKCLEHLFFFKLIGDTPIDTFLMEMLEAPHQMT
Method in brief: (§1)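 HEK293T cells transiently transfected with TRE-luciferase reporter, RXR, and THR alpha or THR beta plasmid; ten five-fold compound dilutions from DMSO added for 18-24 h. One-Glo luminescence read; percent agonism normalized between negative and positive controls.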

[1] = target: T2, human thyroid receptor alpha ligand-binding domain (LBD) (Homo sapiens, UniProt P10827); assay: TR-FRET thyroid receptor alpha coactivator assay (THR biochemical assay, Assay 1); details: for EC50: Table 4, THR-alpha, read-out: Activity category Assay 1 (EC50, THR-alpha agonist activity); for Emax: Table 5, THRα, read-out: Activity category Assay 1 THRα (Emax)
T2 construct: purchased Invitrogen
Method in brief: (§2)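 GST-tagged human TRβ or TRα LBD, 1 nM final (stated for β), with fluorescein-SRC2-2 coactivator peptide (200 nM) and Tb-anti-GST antibody (2 nM). Agonists serially diluted, 1% DMSO final. 1 h incubation at rt in the dark; TR-FRET read as rise in fluorescein and drop in terbium emission.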

[2] = target: T3, human thyroid receptor beta ligand-binding domain (LBD) (Homo sapiens, UniProt P10828); assay: TR-FRET thyroid receptor beta coactivator assay (THR biochemical assay, Assay 1); details: for EC50: THR-beta, TR-FRET coactivator assay, read-out: Activity category Assay 1 (EC50, THR-beta agonist); for Emax: Table 5, Assay 1, THRβ, read-out: Activity category Assay 1 THRβ (Emax)
T3 construct: purchased Invitrogen
T3 sequence (P10828 217-461 limits assumed): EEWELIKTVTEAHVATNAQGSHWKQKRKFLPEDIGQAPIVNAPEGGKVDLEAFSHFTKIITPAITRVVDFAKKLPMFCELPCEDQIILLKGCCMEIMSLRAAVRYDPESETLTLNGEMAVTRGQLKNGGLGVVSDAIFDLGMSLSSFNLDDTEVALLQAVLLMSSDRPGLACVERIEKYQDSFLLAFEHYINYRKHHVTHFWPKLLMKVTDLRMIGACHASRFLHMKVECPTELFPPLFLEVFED
Method in brief: as §2

THR beta = target: T4, THR beta (Homo sapiens, UniProt P10828); assay: HEK293T THR beta/RXR luciferase reporter assay (Assay 2); format: cell-based; details: for Emax: HEK-293T, Table 5, Assay 2, THRβ, read-out: Activity category Assay 2 THRβ (Emax); for EC50: THR-beta, HEK293T reporter assay, read-out: Activity category Assay 2 (EC50, THR-beta agonist)
T4 construct: expressed in transfected cells; host or cells: HEK293T (ATCC CRL-3216)
T4 sequence (P10828 1-461): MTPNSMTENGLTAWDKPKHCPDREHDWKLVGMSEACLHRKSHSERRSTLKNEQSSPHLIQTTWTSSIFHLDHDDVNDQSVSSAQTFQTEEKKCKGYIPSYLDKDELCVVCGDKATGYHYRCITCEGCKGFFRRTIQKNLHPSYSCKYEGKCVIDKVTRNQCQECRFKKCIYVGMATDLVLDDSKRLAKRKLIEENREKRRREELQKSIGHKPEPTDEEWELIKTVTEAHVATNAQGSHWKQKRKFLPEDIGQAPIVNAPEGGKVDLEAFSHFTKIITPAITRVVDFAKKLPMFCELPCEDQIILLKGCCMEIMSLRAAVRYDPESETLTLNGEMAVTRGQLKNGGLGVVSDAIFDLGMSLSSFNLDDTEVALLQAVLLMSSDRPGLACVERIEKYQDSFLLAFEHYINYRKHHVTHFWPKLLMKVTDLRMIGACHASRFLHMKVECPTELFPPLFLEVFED
T4 sequence (P19793 1-462 partner): T1 sequence (P19793 1-462 partner)
Method in brief: as §1

Row | Structure (SMILES) | Emax (THR alpha) | EC50 (THR alpha) | EC50 [1] | Emax [1] | EC50 [2] | Emax [2] | Emax (THR beta) | EC50 (THR beta)
1 | N#Cc1nn(-c2cc(Cl)c(Oc3ccc4[nH]ccc4c3)c(Cl)c2)c(=O)[nH]c1=O [Compound 47, 2-[3,5-dichloro-4-(1H-indol-5-yloxy)phenyl]-3,5-dioxo-4H-1,2,4-triazine-6-carbonitrile] | > 75% | 1 to 10 µM | < 0.05 µM | < 50% | < 0.05 µM | < 50% | > 75% | 1 to 10 µM
2 | CC(C)NC(=O)c1c[nH]c2ccc(Oc3c(Cl)cc(-n4nc(C#N)c(=O)[nH]c4=O)cc3Cl)cc12 [Compound 20] | < 50% | > 10 µM | > 25 µM | < 50% | > 25 µM | < 50% | < 50% | > 10 µM
3 | Nc1nn(-c2cc(Cl)c(Oc3cc(C4(F)CCCC4)c(=O)[nH]n3)c(Cl)c2)c(=O)[nH]c1=O [Compound 144, 6-amino-2-(3,5-dichloro-4-[[5-(1-fluorocyclopentyl)-6-oxo-1H-pyridazin-3-yl]oxy]phenyl)-4H-1,2,4-triazine-3,5-dione] | 50 to 75% | 1 to 10 µM | 0.25 to 1 µM | < 50% | 0.05 to 0.25 µM | < 50% | 50 to 75% | 0.25 to 1 µM
4 | Nc1nn(-c2cc(Cl)c(Oc3cc(C4CCCCC4)c(=O)[nH]n3)c(Cl)c2)c(=O)[nH]c1=O [Compound 58] | 50 to 75% | 0.25 to 1 µM | 0.25 to 1 µM | < 50% | < 0.05 µM | < 50% | > 75% | 0.05 to 0.25 µM
5 | CC(C)Cc1c[nH]c2ccc(Oc3c(Cl)cc(-n4nc(C#N)c(=O)[nH]c4=O)cc3Cl)cc12 [Compound 49, 2-(3,5-dichloro-4-[[3-(2-methylpropyl)-1H-indol-5-yl]oxy]phenyl)-3,5-dioxo-4H-1,2,4-triazine-6-carbonitrile] | < 50% | 0.25 to 1 µM | < 0.05 µM | < 50% | < 0.05 µM | < 50% | > 75% | 0.25 to 1 µM
6 | Cc1cc(-n2nc(C#N)c(=O)[nH]c2=O)cc(C)c1Oc1ccc2[nH]cc(C(C)C)c2c1 [Compound 2, 2-[4-[(3-isopropyl-1H-indol-5-yl)oxy]-3,5-dimethyl-phenyl]-3,5-dioxo-4H-1,2,4-triazine-6-carbonitrile] | > 75% | 0.25 to 1 µM | < 0.05 µM | < 50% | < 0.05 µM | > 75% | > 75% | 0.05 to 0.25 µM
7 | Nc1nn(-c2cc(Cl)c(Oc3cc(Cc4ccc(=O)[nH]n4)c(=O)[nH]n3)c(Cl)c2)c(=O)[nH]c1=O [Compound 160, 6-amino-2-[3,5-dichloro-4-([6-oxo-5-[(6-oxo-1H-pyridazin-3-yl)methyl]-1H-pyridazin-3-yl]oxy)phenyl]-4H-1,2,4-triazine-3,5-dione] | < 50% | > 10 µM | 1 to 25 µM | < 50% | 1 to 25 µM | < 50% | < 50% | > 10 µM
8 | Nc1nn(-c2cc(Cl)c(Oc3cc([C@H]4C[C@H](O)C4)c(=O)[nH]n3)c(Cl)c2)c(=O)[nH]c1=O [Compound 88-A, 6-Amino-2-[3,5-dichloro-4-([6-oxo-5-[(1r,3r)-3-hydroxycyclobutyl]-1H-pyridazin-3-yl]oxy)phenyl]-4H-1,2,4-triazine-3,5-dione] | > 75% | > 10 µM | > 25 µM | < 50% | 1 to 25 µM | < 50% | < 50% | > 10 µM
9 | CC(C)c1cc(Oc2c(Cl)cc(-n3nc(N)c(=O)[nH]c3=O)cc2Br)n[nH]c1=O [Compound 80, 6-Amino-2-(3-bromo-5-chloro-4-((5-isopropyl-6-oxo-1,6-dihydropyridazin-3-yl)oxy)phenyl)-1,2,4-triazine-3,5(2H,4H)-dione] | > 75% | 0.05 to 0.25 µM | 0.05 to 0.25 µM | 50 to 75% | < 0.05 µM | 50 to 75% | > 75% | < 0.05 µM
10 | Nc1nn(-c2cc(Cl)c(Oc3cc(C4CCc5ccccc5C4)c(=O)[nH]n3)c(Cl)c2)c(=O)[nH]c1=O (stereo not shown) [Compound 98] | < 50% | > 10 µM | > 25 µM | < 50% | 0.05 to 0.25 µM | < 50% | < 50% | 0.05 to 0.25 µM
11 | CC(C)c1n[nH]c2nnc(Oc3c(Cl)cc(-n4nc(N)c(=O)[nH]c4=O)cc3Cl)cc12 [Compound 75, 6-amino-2-(3,5-dichloro-4-((3-isopropyl-1H-pyrazolo[3,4-c]pyridazin-5-yl)oxy)phenyl)-1,2,4-triazine-3,5 (2H,4H)-dione] | > 75% | 0.25 to 1 µM | 0.05 to 0.25 µM | > 75% | < 0.05 µM | > 75% | > 75% | < 0.05 µM
12 | Nc1nn(-c2cc(Cl)c(Oc3cc(C(O)C4CCCC4)c(=O)[nH]n3)c(Cl)c2)c(=O)[nH]c1=O (stereo not shown) [Compound 77, 6-amino-2-[3,5-dichloro-4-([5-[cyclopentyl(hydroxy)methyl]-6-oxo-1H-pyridazin-3-yl]oxy)phenyl]-4H-1,2,4-triazine-3,5-dione] | > 75% | 0.25 to 1 µM | 0.25 to 1 µM | 50 to 75% | 0.05 to 0.25 µM | < 50% | > 75% | 0.05 to 0.25 µM
13 | Nc1nn(-c2cc(Cl)c(Oc3cc(-c4cccc(Cl)c4)c(=O)[nH]n3)c(Cl)c2)c(=O)[nH]c1=O [Compound 68, 6-Amino-2-(3,5-dichloro-4-((5-(3-chlorophenyl)-6-oxo-1,6-dihydropyridazin-3-yl)oxy)phenyl)-1,2,4-triazine-3,5(2H,4H)-dione] | 50 to 75% | 0.05 to 0.25 µM | 0.05 to 0.25 µM | < 50% | < 0.05 µM | 50 to 75% | > 75% | < 0.05 µM
14 | Nc1nn(-c2cc(Cl)c(Oc3cc(Cc4ccc(O)cn4)c(=O)[nH]n3)c(Cl)c2)c(=O)[nH]c1=O [Compound 161, 6-amino-2-[3,5-dichloro-4-([5-[(5-hydroxypyridin-2-yl)methyl]-6-oxo-1H-pyridazin-3-yl]oxy)phenyl]-4H-1,2,4-triazine-3,5-dione] | < 50% | > 10 µM | 0.25 to 1 µM | < 50% | 0.25 to 1 µM | < 50% | < 50% | 1 to 10 µM
